{"source": "patent US8058285B2", "about": "“Substituted pyrido [3′, 2′: 4, 5] thieno [3, 2-D] pyrimidines and pyrido [3′, 2′: 4, 5] furo [3, 2-D] pyrimidines used as inhibitors of the PDE-4 and/or the release of TNF-ALPHA” (The Medicines Company (Leipzig) GmbH, priority 2004, dated 2011)", "key": {"[1]": {"system": "murine neuroblastoma cell line N2a", "test": "Induction of axon growth in N2a cells", "format": "cell-based", "settings": "1 μM in the test batch, after 72 h, listed as 7-(3,4-dimethoxyphenyl)-4-ethoxy-9-methyl-2-piperazin-1-yl-pyrido[3′,2′:4,5]-thi", "text": "The inventors have tested some PDE4 inhibitors according to the invention for induction of axon growth with the murine neuroblastoma cell line N2a. It turned out that in particular the substances 4-ethoxy-9-ethyl-7-(3,4-methylenedioxyphenyl)-2-piperazin-1-yl-pyrido[3′,2′:4,5]thieno[3,2-d]-pyrimidine and 7-(3,4-dimethoxyphenyl)-4-ethoxy-9-methyl-2-piperazin-1-yl-pyrido[3′,2′:4,5]thieno[3,2-d]pyrimidine hydrochloride were able to induce the growth of long processes (“axons”) having a length of up to […] at concentrations of 1 μM in the test batch after 72 h (FIGS. 1a and 1b)."}, "TNFα release": {"system": "TNFα release", "test": "LPS-induced TNFα release in diluted human blood (ELISA)", "format": "cell-based", "settings": "LPS 1 μg/ml, human blood diluted 1:5, 24 h; read-out: IC50 value in the TNFα inhibitory assay", "text": "Isolated leukocytes can be stimulated for the release of cytokines in different ways. Lipopolysaccharides (LPS) are a stimulus for the investigation of the TNFα release. LPS is part of bacterial cell walls and is released when the bacteria are killed (by antibiotics or the natural immune system). LPS stimulates in particular the activity of phagocytizing leukocytes (tissue macrophages, granulocytes, monocytes) and causes the infiltration of leukocytes from the peripheral blood into the affected tissue. A cytokine of special significance for these mechanisms is TNFα which is secreted in large amounts by the affected cells. The main source are here monocytes and macrophages. TNFα initiates and prolongs the inflammatory process in cooperation with other mediators.\nFor the investigation of the effect on the LPS-induced TNFα release a method was used which was described by Marx, D., Tassabehji, M., Heer, S., Hüttenbrink, K.-B., and I. Szelenyi, Pulmonary Pharmacology & Therapeutics (2002) 15, 7-15. The method is briefly: Human blood was taken from various donors, rendered incoagulable by the addition of 10 mM Na citrate and diluted 1:5 with RPMI 1640 cell culture medium. The test substances were added to the blood samples at various concentrations. 15 min later, the leukocytes were stimulated by the addition of lipopolysaccharides (LPS) from Salmonella abortus equi at a final concentration of 1 μg/ml. After the incubation of the test batches at 37° C. and under 5% CO2 in a water-saturated air for 24 h, the blood was centrifuged and the TNFα concentration in the cell-free supernatant was accurately measured using a purchasable ELISA (BD Biosciences) according to the manufacturer's instructions."}, "PDE-4A": {"target": "T1, PDE-4A (Homo sapiens, UniProt P27815)", "T1 construct": "PDE-4A catalytic domain comprising amino acids 342-704; made in house; host or cells: Escherichia coli", "T1 sequence (P27815 342-704)": "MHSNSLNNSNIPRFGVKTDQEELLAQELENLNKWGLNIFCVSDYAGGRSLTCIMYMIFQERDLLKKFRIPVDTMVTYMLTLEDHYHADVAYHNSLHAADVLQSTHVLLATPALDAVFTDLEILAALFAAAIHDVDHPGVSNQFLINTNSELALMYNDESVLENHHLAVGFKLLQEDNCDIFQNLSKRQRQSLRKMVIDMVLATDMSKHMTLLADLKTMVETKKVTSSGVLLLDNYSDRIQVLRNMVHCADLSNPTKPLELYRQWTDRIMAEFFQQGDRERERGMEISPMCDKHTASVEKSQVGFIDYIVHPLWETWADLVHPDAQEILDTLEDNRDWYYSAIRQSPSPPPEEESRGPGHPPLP", "test": "PDE-4A inhibitory assay (SPA)", "format": "biochemical", "how_it_was_run": "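Human recombinant PDE-4A catalytic domain (aa 342-704), E. coli-expressed. SPA with 1 μM [^3H]-cAMP substrate in 100 mM Tris-HCl pH 7.5, 5 mM MgCl2, 1% DMSO; 20 min at 22° C. Non-specific activity with 100 μM rolipram subtracted.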"}, "PDE-4": {"system": "PDE-4", "settings": "cited from earlier work"}, "CLL cells": {"system": "CLL cells", "test": "Cytotoxicity on CLL cells, formazan reduction assay (MTT test)", "settings": "1 μM, 24 h incubation of the patient's blood, primary CLL", "protocol": "The positive control used was fludarabine which is employed for CLL as a standard chemotherapeutic agent.\nThe cytotoxicity of the CLL cells was determined by means of a commercially available formazan reduction assay (MTT test) after 24 h of incubation of the patient's blood with the active substances."}}}
{"smiles": "CCS(=O)(=O)c1nc(N2CCNCC2)c2sc3nc(-c4ccccc4)cc(C)c3c2n1", "note": "[Example 15, 2-ethylsulfonyl-9-methyl-7-phenyl-4-piperazin-1-yl-pyrido-[3′,2′:4,5]thieno[3,2-d]pyrimidine]", "values": [{"measurement": "melting point", "value": "190 °C (dec.)"}]}
{"smiles": "C/C=C/C=C/C(O)c1ccc(-c2nc(C)c3c(n2)sc2c(OCC)nc(N4CCNCC4)nc23)cc1", "note": "(stereo not drawn) [Example 6, 4-ethoxy-7-(4-[{2E,4E}-1-hydroxyhexa-2,4-dienyl]phenyl)-9-methyl-2-piperazin-1-yl-thieno[2,3-d:4,5-d′]dipyrimidine]", "values": [{"measurement": "melting point", "value": "149 to 150", "unit": "°C"}]}
{"smiles": "CCSc1nc(N2CCNCC2)c2sc3nc(-c4ccccc4)cc(C)c3c2n1", "note": "[Example 13, 2-ethylthio-9-methyl-7-phenyl-4-piperazin-1-yl-pyrido-[3′,2′:4,5]thieno[3,2-d]pyrimidine]", "values": [{"measurement": "melting point", "value": "150 to 154", "unit": "°C"}]}
{"smiles": "CCOc1nc(N2CCNCC2)nc2c1sc1nc(-c3ccc(OC)c(OC)c3)cc(C)c12.Cl", "note": "[4-Ethoxy-7-(3,4-dimethoxy-phenyl)-9-methyl-2-(piperazin-1-yl)-pyrido[3′,2′:4,5]thieno[3,2-d]pyrimidine-hydrochloride]", "values": [{"measurement": "length of induced long processes (axons)", "setting": "[1]", "value": "≤ 300", "unit": "µm"}, {"measurement": "IC50", "setting": "TNFα release", "value": "< 2000", "unit": "nM"}]}
{"smiles": "CCOc1nc(N2CCNCC2)nc2c1sc1nc(-c3ccc(C(O)CO)cc3)nc(C)c12", "note": "(stereo not drawn) [7-(4-[1,2-Dihydroxyethyl]-phenyl)-4-ethoxy-9-methyl-2-piperazin-1-yl-thieno[2,3-d:4,5-d′]dipyrimidine]", "values": [{"measurement": "IC50", "setting": "TNFα release", "value": "< 2000", "unit": "nM"}, {"measurement": "melting point", "value": "> 300", "unit": "°C"}, {"measurement": "IC50", "setting": "PDE-4A", "value": "2 to 50", "unit": "nM"}]}
{"smiles": "O=C(Nc1c(Cl)cncc1Cl)c1ccc(OC(F)F)c(OCC2CC2)c1", "note": "[roflumilast]", "values": [{"measurement": "IC50", "setting": "PDE-4", "value": 0.8, "unit": "nM"}]}
{"smiles": "Cc1cc(-c2ccccc2)nc2sc3c(N4CCNCC4)nc(OCCO)nc3c12", "note": "[2-(2-Hydroxy-ethoxy)-9-methyl-7-phenyl-4-(piperazin-1-yl)-pyrido[3′,2′:4,5]thieno[3,2-d]pyrimidine]", "values": [{"measurement": "IC50", "setting": "TNFα release", "value": "< 2000", "unit": "nM"}, {"measurement": "IC50", "setting": "PDE-4A", "value": "2 to 50", "unit": "nM"}]}
{"smiles": "CCOc1nc(N2CCNCC2)nc2c1sc1nc(N3CCOCC3)cc(-c3ccccc3)c12", "note": "[4-Ethoxy-7-morpholino-9-phenyl-2-(piperazin-1-yl)-pyrido[3′,2′:4,5]thieno[3,2-d]pyrimidine]", "values": [{"measurement": "IC50", "setting": "TNFα release", "value": "< 2000", "unit": "nM"}, {"measurement": "IC50", "setting": "PDE-4A", "value": "2 to 50", "unit": "nM"}]}
{"smiles": "CCOc1nc(N2CCNCC2)nc2c1sc1nc(-c3ccc(NC(=O)c4cccnc4)cc3)cc(C(F)(F)F)c12", "note": "[N-(4-(4-Ethoxy-9-trifluoromethyl-2-piperazin-1-yl-pyrido[3′,2′:4,5]thieno[3,2-d]pyrimidin-7-yl)-phenyl)-nicotinamide]", "values": [{"measurement": "IC50", "setting": "TNFα release", "value": "< 2000", "unit": "nM"}, {"measurement": "IC50", "setting": "PDE-4A", "value": "< 2", "unit": "nM"}]}
{"smiles": "CCOc1nc(N2CCNCC2)nc2c1sc1nc(-c3ccc(-c4cc[nH]c4)cc3)nc(C)c12", "note": "[4-Ethoxy-9-methyl-2-piperazin-1-yl-7-(4-[3-pyrrolyl]-phenyl)-thieno[2,3-d:4,5-d′]dipyrimidine]", "values": [{"measurement": "IC50", "setting": "TNFα release", "value": "< 2000", "unit": "nM"}, {"measurement": "IC50", "setting": "PDE-4A", "value": "2 to 50", "unit": "nM"}]}
{"smiles": "CCOc1nc(N2CCNCC2)nc2c1sc1nc(-c3ccc(-n4ccnc4)cc3)cc(C(F)(F)F)c12", "note": "[4-Ethoxy-7-(4-(1H-imidazol-1-yl)phenyl)-2-(piperazin-1-yl)-9-trifluoromethyl-pyrido[3′,2′:4,5]thieno[3,2-d]pyrimidine]", "values": [{"measurement": "IC50", "setting": "TNFα release", "value": "< 2000", "unit": "nM"}, {"measurement": "IC50", "setting": "PDE-4A", "value": "< 2", "unit": "nM"}]}
{"smiles": "CCOc1nc(N2CCNCC2)nc2c1sc1nc(C)c(Cc3ccc([N+](=O)[O-])cc3)c(C)c12", "note": "[4-Ethoxy-7,9-dimethyl-8-(4-nitro-benzyl)-2-(piperazin-1-yl)-pyrido[3′,2′:4,5]thieno[3,2-d]pyrimidine]", "values": [{"measurement": "IC50", "setting": "TNFα release", "value": "< 2000", "unit": "nM"}, {"measurement": "IC50", "setting": "PDE-4A", "value": "2 to 50", "unit": "nM"}]}
{"smiles": "CCOc1nc(N2CCNCC2)c2sc3nc(-c4ccc(OC)cc4)cc(C)c3c2n1", "note": "[2-Ethoxy-7-(4-methoxy-phenyl)-9-methyl-4-(piperazin-1-yl)-pyrido[3′,2′:4,5]thieno[3,2-d]pyrimidine]", "values": [{"measurement": "IC50", "setting": "TNFα release", "value": "< 2000", "unit": "nM"}, {"measurement": "IC50", "setting": "PDE-4A", "value": "2 to 50", "unit": "nM"}]}
{"smiles": "CCOc1nc(N2CCNCC2)nc2c1sc1nc(-c3ccc(OC)cc3)cc(C)c12", "note": "[4-Ethoxy-7-(4-methoxy-phenyl)-9-methyl-2-(piperazin-1-yl)-pyrido[3′,2′:4,5]thieno[3,2-d]pyrimidine]", "values": [{"measurement": "IC50", "setting": "TNFα release", "value": "< 2000", "unit": "nM"}, {"measurement": "IC50", "setting": "PDE-4A", "value": "2 to 50", "unit": "nM"}]}
{"smiles": "CCOc1nc(N2CCNCC2)nc2c1sc1nc(-c3ccncc3)cc(C(F)(F)F)c12", "note": "[4-Ethoxy-2-(piperazin-1-yl)-7-(4-pyridyl)-9-trifluoromethyl-pyrido[3′,2′:4,5]thieno[3,2-d]pyrimidine]", "values": [{"measurement": "IC50", "setting": "TNFα release", "value": "< 2000", "unit": "nM"}, {"measurement": "IC50", "setting": "PDE-4A", "value": "2 to 50", "unit": "nM"}]}
{"smiles": "CCOc1nc(N2CCNCC2)c2sc3nc(C)c(Cc4ccc([N+](=O)[O-])cc4)c(C)c3c2n1", "note": "[2-Ethoxy-7,9-dimethyl-8-(4-nitro-benzyl)-4-(piperazin-1-yl)-pyrido[3′,2′:4,5]thieno[3,2-d]pyrimidine]", "values": [{"measurement": "IC50", "setting": "TNFα release", "value": "< 2000", "unit": "nM"}, {"measurement": "IC50", "setting": "PDE-4A", "value": "2 to 50", "unit": "nM"}]}
{"smiles": "C=Cc1ccc(-c2nc(C)c3c(n2)sc2c(OCC)nc(N4CCNCC4)nc23)cc1", "note": "[4-Ethoxy-9-methyl-2-piperazin-1-yl-7-(4-vinyl-phenyl)-thieno[2,3-d:4,5-d′]dipyrimidine]", "values": [{"measurement": "melting point", "value": "165 to 166", "unit": "°C"}, {"measurement": "IC50", "setting": "PDE-4A", "value": "2 to 50", "unit": "nM"}]}
{"smiles": "CCOc1nc(N2CCNCC2)nc2c1oc1nc(-c3ccccc3)cc(C)c12", "note": "[4-Ethoxy-7-phenyl-9-methyl-2-(piperazin-1-yl)-pyrido[3′,2′:4,5]furo[3,2-d]pyrimidine]", "values": [{"measurement": "melting point", "value": "131 to 132", "unit": "°C"}, {"measurement": "IC50", "setting": "PDE-4A", "value": "2 to 50", "unit": "nM"}]}
{"smiles": "Nc1nc(F)nc2c1ncn2[C@@H]1O[C@H](CO)[C@@H](O)[C@@H]1O", "note": "[fludarabine]", "values": [{"measurement": "cytotoxicity, share of the cells", "setting": "CLL cells", "value": "≤ 60", "unit": "%"}]}
{"smiles": "CCOc1nc(N2CCNCC2)c2sc3nc(-c4ccccc4)nc(C)c3c2n1", "note": "[Example 2, 2-ethoxy-9-methyl-4-piperazin-1-yl-7-phenyl-thieno[2,3-d:4,5-d′]dipyrimidine]", "values": [{"measurement": "melting point", "value": "> 310", "unit": "°C"}]}
{"smiles": "CCOc1nc(N2CCNCC2)nc2c1sc1nc(-c3ccc(NC(=O)c4ccncc4)cc3)cc(C(F)(F)F)c12", "note": "[N-(4-(4-Ethoxy-9-trifluoromethyl-2-piperazin-1-yl-pyrido[3′,2′:4,5]thieno[3,2-d]pyrimidin-7-yl)-phenyl)-isonicotinamide]", "values": [{"measurement": "IC50", "setting": "TNFα release", "value": "< 2000", "unit": "nM"}, {"measurement": "IC50", "setting": "PDE-4A", "value": "< 2", "unit": "nM"}]}
{"smiles": "CCOc1nc(N2CCNCC2)c2oc3nc(-c4ccccc4)cc(C)c3c2n1", "note": "[2-Ethoxy-7-phenyl-9-methyl-4-(piperazin-1-yl)-pyrido[3′,2′:4,5]furo[3,2-d]pyrimidine]", "values": [{"measurement": "melting point", "value": 175, "unit": "°C"}, {"measurement": "IC50", "setting": "PDE-4A", "value": "2 to 50", "unit": "nM"}]}
